Results on 27 molecules are retold here after patent US6174907A, “Benzimidazole compounds containing 1,2,4-triazole ring, and compositions and methods of use containing the same” (Fuji Photo Film Co., Ltd., priority 1995, dated 2001).

In data set [1] the test system is mouse peritoneal macrophages. In words: Suppression of foaming of macrophages (cholesterol ester synthesis) in vitro. Format: cell-based, mouse (female ICR). The settings on record: for activity at 5 µM: Mus musculus, Peritoneal macrophage, read-out: Rate of CE synthesis (%). The procedure: Activity of the compounds of the present invention for suppressing the foaming of macrophages
(§1) Activity of the compounds of the present invention for suppressing the foaming of macrophages, which triggers arterial sclerosis, was examined by an in vitro experiment using mouse peritoneal macrophages. 15-Week old female ICR mice (Nippon SLC) were subjected to bleeding by cutting off their cervicalis, and Hanks buffer (Nippon Seiyaku) was injected into their peritoneal cavities. After abdominal regions of the mice were massaged, the buffer was recovered immediately, and then the resulting buffer was centrifuged at 1,000 r.p.m. for five minutes to collect peritoneal macrophages. Then, the collected macrophages were suspended in GTI medium (Wako Pure Chemical Industries), and inoculated onto a 24-well microtiter plate. After the macrophages were cultivated at 37° C. under 5% CO2 for two hours, the culture medium was changed with Dulbecco Modified Eagle Medium (MEM, Nippon Seiyaku). The macrophages were further cultivated at 37° C. under 5% CO2 for 16 hours, and then a test compound and liposomes were added to the culture.
1) Test compound: dissolved in DMSO (Wako Pure Chemical Industries),
PC: Phosphatidylcholine (Funakoshi);
PS: Phosphatidylserine (Funakoshi);
DCP: Dicetylphosphate (Funakoshi);
CHOL: Cholesterol (Sigma)
(§2) After cultivation was further continued at 37° C. under 5% CO2 for 16 hours, lipid fraction was extracted with chloroform and methanol. The extracted lipid fraction was dissolved in isopropyl alcohol, and the produced cholesterol ester (CE) was quantified by an enzymatic luminescence method. Yield of the cholesterol ester was calculated as a relative ratio based on yield of the control as 100% where no test compound was added. Cytotoxicity was examined microscopically by observing morphological alteration of cells. In the tables, compound numbers correspond to those of the compounds of present invention described in the examples.

Data set [2] concerns mouse peritoneal macrophages. Briefly: Cytotoxicity examined microscopically (morphological alteration of cells). The settings on record: Table 4; 5 μM; observed microscopically. The data set is classed as cell-based, mouse (female ICR). On the procedure: as §1, §2
In data set [3] the test system is rabbits fed with high cholesterol food. In words: Effect on lipid in blood, GOT and GPT in rabbits fed with high cholesterol food. The following applies: 100 mg/kg/day/rabbit in feed; for Difference in total cholesterol compared with the control group / Increase of HDL cholesterol / Reduction of LDL cholesterol compared with the control group: seven days, high cholesterol feed; for GOT / GPT: during the experiment. The data set is classed as in vivo, NZW rabbits (male). An excerpt:
(§3) Activity of the compounds of the present invention for suppressing the formation of arterial sclerosis lesions (in vivo experiment) By using rabbits fed with high cholesterol food, effect on lipid in blood and activity of the compounds of the present invention for suppressing formation of arterial sclerosis lesions were examined. Hypercholesterolemia condition was created by feeding NZW rabbits (male) weighing about 2 kg with high cholesterol feed (100 g/day/rabbit of OCR-4 [Oriental Yeast]+0.5% cholesterol+0.5% olive oil) for seven days. A group consisting of three rabbits was continuously administered with a compound of the present invention (Compound B16 or Compound B49) for seven days by mixing the compound with the above feed at an amount of 100 mg/kg/day/rabbit. Another group consisting of three rabbits was fed solely with the high cholesterol feed and used as a control group. Blood was collected from parotid veins with one week interval, and total cholesterol, LDL cholesterol, HDL cholesterol, GOT, and GPT were measured.

For data set [4] the test system is unchanged. Briefly: Suppression of formation of arterial sclerosis lesions (cholesterol deposited on inner vascular walls of aortas). The data set is classed as in vivo, NZW rabbits (male). The settings on record: 100 mg/kg/day/rabbit in feed; aortas removed seven weeks after the administration.
Text: Activity of the compounds of the present invention for suppressing the formation of arterial sclerosis lesions (in vivo experiment)
as §3, with “By” for “Activity of the compounds of the present invention for suppressing the formation of arterial sclerosis lesions (in vivo experiment) By”, “group.” for “group. Blood was collected from parotid veins with one week interval, and total cholesterol, LDL cholesterol, HDL cholesterol, GOT, and GPT were measured.”
Aortas were removed seven weeks after the administration, and cholesterol deposited on inner vascular walls was quantified. In the groups administered with Compound B16 or Compound B49, the amount of deposited cholesterol was reduced by 40% and 45% compared with control, respectively.

The mark [5] stands for this setting: Table 4, 5 μM, 16 hours, relative to control as 100%, smaller value = more potent suppression.

On to `Cc1nnc(SCCCCCSc2nc3ccccc3[nH]2)s1` [Compound B16], for which the activity at 5 µM in data set [1] (setting [5]) was 9.3%. Further, the Cytotoxicity entry in data set [2] is recorded as “Not observed”. In data set [3], the “Difference in total cholesterol compared with the control group” value is “no difference in total cholesterol was observed”, the “Increase of HDL cholesterol” value is 30%, the “Reduction of LDL cholesterol compared with the control group” value stood at 35% and the GOT entry was “No abnormal value was observed”. Besides, the GPT entry in data set [3] is given as “No abnormal value was observed”. Moreover, the “Reduction of the amount of deposited cholesterol on inner vascular walls of aortas compared with control” value in data set [4] turned out to be 40%.

In the case of `c1ccc(CCCCCSc2nc3ccccc3[nH]2)nc1` [Compound B43, 1-(2'-benzimidazolylthio)-5-(2"-pyridyl)pentane], in data set [1] (setting [5]), the “Rate of CE synthesis (%)” value was 12%. The Cytotoxicity entry in data set [2] was “Not observed”.

As for `Clc1cc2nc(CCCCCSc3ccccn3)[nH]c2cc1Cl` [Compound B44], the activity at 5 µM in data set [1] (setting [5]) was 51%. Moreover, the Cytotoxicity result in data set [2] is “Not observed”.

Take `Cc1cc2nc(CCCCCSc3ccccn3)[nH]c2cc1C` [Compound B45]: the activity at 5 µM in data set [1] (setting [5]) was determined as 48%. Moreover, in data set [2], the Cytotoxicity entry is given as “Not observed”.

As to `O=[N+]([O-])c1ccc2[nH]c(CCCCCSc3ccccn3)nc2c1` [Compound B46], the activity at 5 µM in data set [1] (setting [5]) came out at 36%. Besides, in data set [2], the Cytotoxicity entry is on record as “Not observed”.

As for `c1ccc(SCCCCCCCc2nc3ccccc3[nH]2)nc1` [Compound B47], the activity at 5 µM in data set [1] (setting [5]) is 23%. The Cytotoxicity result in data set [2] was “Not observed”.

Regarding `c1ccc(SCCCCCCCCCCCc2nc3ccccc3[nH]2)nc1` [Compound B48], the activity at 5 µM in data set [1] (setting [5]) amounted to 41%. Moreover, the Cytotoxicity result in data set [2] was “Not observed”.

`c1cnc(SCCCCCSc2nc3ccccc3[nH]2)nc1` [Compound B49]: the activity at 5 µM in data set [1] (setting [5]) worked out at 11%. Moreover, in data set [2], the Cytotoxicity entry is listed as “Not observed”. Also, in data set [3], the “Difference in total cholesterol compared with the control group” value is recorded as “no difference in total cholesterol was observed”, the “Increase of HDL cholesterol” value came to 30%, the “Reduction of LDL cholesterol compared with the control group” value is 30% and the GOT result is reported as “No abnormal value was observed”. Moreover, the GPT entry in data set [3] was “No abnormal value was observed”. For the same molecule, the “Reduction of the amount of deposited cholesterol on inner vascular walls of aortas compared with control” value in data set [4] amounted to 45%.

For `Cc1ccnc(SCCCCCSc2nc3ccccc3[nH]2)n1` [Compound B50], in data set [1] (setting [5]), the activity at 5 µM came to 22%. Further, in data set [2], the Cytotoxicity result is on record as “Not observed”.

As for `Cc1cc(C)nc(SCCCCCSc2nc3ccccc3[nH]2)n1` [Compound B51], the activity at 5 µM in data set [1] (setting [5]) stood at 24%. Also, the Cytotoxicity result in data set [2] was “Not observed”.

`Cc1cc(O)nc(SCCCCCSc2nc3ccccc3[nH]2)n1` [Compound B52]: the activity at 5 µM in data set [1] (setting [5]) turned out to be 49%. Further, in data set [2], the Cytotoxicity entry is on record as “Not observed”.

Consider `Oc1ccnc(SCCCCCSc2nc3ccccc3[nH]2)c1` [Compound B53], for which the activity at 5 µM in data set [1] (setting [5]) stood at 52%. Also, the Cytotoxicity result in data set [2] is recorded as “Not observed”.

As for `c1ccc2[nH]c(SCCCCCSC3=NCCCN3)nc2c1` [Compound B54], the activity at 5 µM in data set [1] (setting [5]) was found to be 24%. The Cytotoxicity entry in data set [2] is given as “Not observed”.

Regarding `CC1=CC(C)(C)NC(SCCCCCSc2nc3ccccc3[nH]2)=N1` [Compound B55], in data set [1] (setting [5]), the activity at 5 µM amounted to 52%. Further, the Cytotoxicity result in data set [2] is “Not observed”.

For `CSc1nc(C)cc(SCCCCCSc2nc3ccccc3[nH]2)n1` [Compound B56], the activity at 5 µM in data set [1] (setting [5]) stood at 18%. For the same molecule, in data set [2], the Cytotoxicity entry is listed as “Not observed”.

For the molecule `c1ccc2nc(SCCCCCSc3nc4ccccc4[nH]3)ccc2c1` [Compound B57], the activity at 5 µM in data set [1] (setting [5]) was found to be 26%. Moreover, in data set [2], the Cytotoxicity entry was “Not observed”.

As to `Oc1cc(SCCCCCSc2nc3cc(Cl)c(Cl)cc3[nH]2)nc2ccccc12` [Compound B58], the activity at 5 µM in data set [1] (setting [5]) turned out to be 18%. Moreover, the Cytotoxicity result in data set [2] is recorded as “Not observed”.

Consider `c1ccc2[nH]c(SCCCCCSc3ncnc4nc[nH]c34)nc2c1` [Compound B59], for which the activity at 5 µM in data set [1] (setting [5]) stood at 9.2%. Further, the Cytotoxicity result in data set [2] was “Not observed”.

`c1ccc2[nH]c(SCCCCCSc3ncnc4cn[nH]c34)nc2c1` [Compound B60]: the activity at 5 µM in data set [1] (setting [5]) was 14%. For the same molecule, the Cytotoxicity entry in data set [2] is “Not observed”.

Regarding `CCCc1cc(SCCCCCSc2nc3ccccc3[nH]2)n2ncnc2n1` [Compound B61], the activity at 5 µM in data set [1] (setting [5]) worked out at 12%. For the same molecule, in data set [2], the Cytotoxicity entry was “Not observed”.

On to `c1cnc2c(SCCCCCSc3nc4ccccc4[nH]3)cccc2c1` [Compound B62], for which, in data set [1] (setting [5]), the activity at 5 µM was found to be 25%. Moreover, in data set [2], the Cytotoxicity result is listed as “Not observed”.

As for `FC(F)(F)c1ccc2c(SCCCCCSc3nc4ccccc4[nH]3)ccnc2c1` [Compound B63], the activity at 5 µM in data set [1] (setting [5]) is 15%. Also, the Cytotoxicity entry in data set [2] is on record as “Not observed”.

Take `Cn1c(SCCCCCSc2ccccn2)nc2ccccc21` [Compound B64, 5-(2'-(1'-methylbenzimidazolyl)thio)-1-(2"-pyridylthio)pentane]: the activity at 5 µM in data set [1] (setting [5]) was found to be 24%. Further, the Cytotoxicity entry in data set [2] was “Not observed”.

In the case of `CCC(=O)n1c(SCCCCCSc2ccccn2)nc2ccccc21` [Compound B65, 5-(2'-(1'-propionylbenzimidazolyl)thio)-1-(2"-pyridylthio)pentane], the activity at 5 µM in data set [1] (setting [5]) came to 22%. Besides, in data set [2], the Cytotoxicity entry is “Not observed”.

In the case of `CNS(=O)(=O)c1ccc2c(c1)nc(SCCCCCSc1ccccn1)n2C` [Compound B66], the activity at 5 µM in data set [1] (setting [5]) amounted to 52%. The Cytotoxicity entry in data set [2] was “Not observed”.

`c1ccc(SCCOCCSc2nc3ccccc3[nH]2)nc1` [Compound B67]: the activity at 5 µM in data set [1] (setting [5]) was 54%. The Cytotoxicity entry in data set [2] is on record as “Not observed”.

`c1ccc(-c2nc(SCSc3nc4ccccc4[nH]3)[nH]c2-c2ccccc2)cc1` [Control Compound, reference compound]: the “Activity for suppressing the foaming of macrophages (in words)” value in data set [1] is recorded as “did not exhibit activity for suppressing the foaming of macrophages”. Also, the activity at 5 µM in data set [1] (setting [5]) was determined as 102%. The Cytotoxicity entry in data set [2] is “Not observed”.
